Source: patent US20200339544A1 (JOINT STOCK COMPANY "BIOCAD", priority 2017, published 2020)
Where two headings read alike, the source gives them in different places.

How the values were obtained:
[1] = target: T1, WT EGFR (Wild-Type EGFR) (Homo sapiens, UniProt P00533); experiment: Inhibition of WT EGFR kinase activity (ADP-Glo); format: biochemical
T1 construct: purchased SignalChem
Description: (§1) To assess IC50 values of the compounds disclosed herein, a biochemical assay of inhibition of kinase activity in a non-cellular system and a functional cellular anti-proliferation assay were used.
(§2) To assess inhibition of WT EGFR (Wild-Type EGFR), DM EGFR (DoubleMutantEGFR, L828R/T790M) kinase activity, SignalChem kinase system and ADP-Glo™ Kinase Assay (V9102, Promega) detection kit were used.
(§3) The measurements were carried out in a 25 μL reaction volume using a 96-well plate. […] The solution of 0.5 mg/mL peptide substrate and 50 μM ATP in the same buffer were added; the solution was incubated for 180 minutes at 37° C. To detect the amount of ATP taken up during the kinase reaction, the ADP Glo Detection Kit (V9102, Promega) was used. The luminescence was measured with the Infinite M200Pro plate spectrophotometer (Tecan, Switzerland). IC50 values were calculated using Magellan 7.2 software (Tecan, Switzerland) approximating experimental points by four-parameter logistic model with the optimization by Levenberg-Marquardt (Table 14).

[2] = tested on: A549 (lung adenocarcinoma, WT); experiment: Antiproliferative activity on A549 cells (Alamar Blue); format: cell-based; details: Homo sapiens, antiproliferative test
Description: (§4) Antiproliferative activity of EGFR inhibitors (Tables 15 and 16) was measured in cell-based bioassay on continuous epithelial cell cultures: A549 (lung adenocarcinoma, ATCC® CRM-CCL-185™—WT), HCC827 (lung adenocarcinoma, ATCC® CRL-2868™—SM (SingleMutantEGFR, exon19delE746-A750)) and H1975 (lung adenocarcinoma, ATCC® CRL-5908™—DM (DoubleMutantEGFR, L828R/T790M)) using cell viability reagent Alamar Blue (ThermoFisher, # DAL1100). Cells were cultured in 10% FBS-supplemented (Gibco, #16140071) RPMI-1640 (PanEco, S330p) for at least 1 passage after thawing, washed with PBS and passaged in 96-well culture plates (3599, Corning) with RPMI-1640 growth medium supplemented with 2% FBS in an amount of 5*10^3 cells/well for A549, 10*10^3 cells/well for HCC827 and 15*10^3 cells/well for H1975 in 100 μL, and incubated at 37° C. in an incubator (Thermo Forma, USA) under 5% of CO2 for 16-18 h for cell attachment.
(§5) The test compounds were dissolved in DMSO in the selected range of concentrations and transferred to RPMI-1640 medium (PanEco, S330p) supplemented with 2% FBS. After adding 50 μl of the prepared dilutions to the cells, the incubation mixture contained the final concentrations of the test substances and no more than 1% DMSO. The plates were Incubated at 37° C. for 72 h. After incubation, 15 μl of Alamar Blue vital dye (ThermoFisher, # DAL1100) was added to each well. The plates were shaken on an orbital shaker (Biosan, Latvia) and further incubated for 3-5 h in a CO2 incubator (Thermo Forma, USA). Number of living cells was estimated using a plate spectrophotometer Infinite M200Pro, (Tecan, Switzerland) measuring fluorescent signal at the excitation wavelength (λEx) of 540 nm and emission wavelength (λEm) of 590 nm.
IC50 was calculated using Magellan 7.2 software (Tecan, Switzerland) approximating experimental points by four-parameter logistic model with the optimization by Levenberg-Marquardt.
(§6) The ratio between IC50 for cell lines containing wild-type EGFR (A549) and IC50 for cell lines containing target mutation L828R/T790M (H1975) is the selectivity index (SI): […]

[3] = Chemical stability in human blood plasma; format: in vitro ADME; details: pooled human blood plasma; 10 μm; 4 hours at 37° C.; substance amount remaining
Description: 2) Determination of chemical stability in human blood plasma.
Determination of stability in human blood plasma was performed using pooled human blood plasma taken from ten healthy donors. The initial candidate solution (10 mM in DMSO) was diluted with pooled blood plasma to a concentration of 10 μm (test solution). The test solution was incubated in a dry block thermostat for 4 hours at 37° C. HPLC with Agilent 1200 liquid chromatography system (Agilent, USA) was employed to determine peak areas of the compounds in test samples, said peak areas corresponding to the initial test time (prior to incubation) and the final test time (after incubation in a dry block thermostat for 4 hours at 37° C.), proteins were preliminarily precipitated with acetonitrile. We used gradient elution (1 mL/min flow rate). Substance amount in % in a sample after thermostatting was determined.
The stability of the compounds was estimated.

[4] = tested on: H1975 (lung adenocarcinoma, DM, L828R/T790M); experiment: Antiproliferative activity on H1975 cells (Alamar Blue); format: cell-based; details: for IC50: Homo sapiens, NCI-H1975, H1975 cells; for SI IC50(A549)/IC50(DM): selectivity index, A549 vs H1975 cells
Description: as §4, §5
IC50 was calculated using Magellan 7.2 software (Tecan, Switzerland) approximating experimental points by four-parameter logistic model with the optimization by Levenberg-Marquardt. […]
as §6

[5] = Enzyme stability in human liver S9 fractions; format: in vitro ADME; details: 0.5 mg/mL pooled human liver S9 fractions; 10 μM compound; 37° C.; pH 7.4; read-out: Stability in liver S9 fractions, Clint
Description: Determination of enzyme stability.
Measuring of candidate enzyme stability enabled estimation of the stability of the compounds towards the action of liver enzymes.
Enzyme degradation rate was measured by incubating the reaction mixture in a dry block thermostat at 37° C., said reaction mixture comprising 0.5 mg/mL of pooled human liver S9 fractions (XenoTech, USA, cat # H0610), 10 μM compound, 2 mM β-nicotinamide adenine dinucleotide (Carbosynth, UK, cat # NN10871) and 4 mM magnesium chloride in 0.1 M sodium-phosphate buffer, pH=7.4. The reaction was quenched with acetonitrile (100 μL of acetonitrile/100 μL of the reaction mixture). After quenching, the samples were centrifuged at 10000 rpm for 10 minutes. Supernatant fluid was tested by chromatographic technique using Agilent1200 (Agilent, USA). We used gradient elution (1 mL/min flow rate). A graph of the logarithm of substance's peak area as a function of time was made. The dependent factor of the line corresponded to the elimination rate constant K based on which the drug's half-life T½ and intrinsic clearance CLint were calculated:
Based on the data obtained, candidate enzyme stability in human liver S9 fractions was determined (see Table 11).

[6] = target: T2, DM EGFR (DoubleMutantEGFR, L828R/T790M) (Homo sapiens, UniProt P00533, L858R/T790M); experiment: Inhibition of DM EGFR kinase activity (ADP-Glo); format: biochemical; details: for IC50: inhibition of kinase activity, EGFR DM (L828R/T790M); for SI, IC50(WT)/IC50(DM): selectivity index, kinase EGFR WT vs EGFR DM
T2 construct: purchased SignalChem
Description: as §1, §2, §3

[7] = tested on: HepG2 cells; experiment: General cytotoxicity on HepG2 cells; format: cell-based; details: therapeutic index, CC50 HepG2 / IC50 H1975
Description: (§7) The CC50 values were determined in the test for General cytotoxicity on HepG2 cells (rhepatocellular carcinoma, ATCC® HB-8065™) (Table 16). The cells were subcultured in DMEM medium (PanEco, S420p) supplemented with 10% FBS (Gibco, #16140071) for at least 1 passage after thawing, washed with PBS and passaged in 96-well culture plates (3599, Corning) at a concentration of 2*10^4 cells/100 μL per well, and incubated for 16-18 h. The test substances were titrated in DMSO and transferred to DMEM (PanEco, S420p) medium supplemented with 2% FBS, added to the cells and incubated at 37° C. for 72 hours; viability of the cells was then assessed using Alamar Blue dye (ThermoFisher, # DAL1100). CC50 was determined similarly to IC50.
(§8) The ratio between CC50 for HepG2 cell line and IC50 for H1975 cell line is the therapeutic index (TI): […]

[8] = General cytotoxicity on HepG2 cells; format: cell-based; details: human; general cytotoxicity, HepG2 cells, 72 hours, average of several tests
Description: as §7, §8

[9] = average values obtained in several tests, Table 16, read-out: H1975 (DM) IC50
[10] = antiproliferative test, Table 15, read-out: IC50 H1975 (DM)

SMILES	IC50 [1] [µM]	IC50 [2] [µM]	Stability in blood plasma, % [3] [%]	IC50 [4, 9] [µM]	IC50 [4, 10] [µM]	SI IC50(A549)/IC50(DM) [4]	Intrinsic clearance in human liver S9 fractions at 10 µM [5] [µL/min/mg]	IC50 [6] [µM]	SI, IC50(WT)/IC50(DM) [6]	TI, CC50/IC50 [7]	CC50 at 72 h [8] [µM]
C=CC(=O)Nc1cc(Nc2cc(C(=O)c3ccc(OC)cc3OC)ccn2)c(OC)cc1N(C)CCN(C)C [EGFR_3365_87, N-(5-((4-(2,4-dimethoxybenzoyl)pyridin-2-yl)amino)-2-((2-(dimethylamino)ethyl)(methyl)amino)-4-methoxyphenyl)acrylamide]	0.0674	8.02	73.3	0.0576	0.0576	139	11.6	0.00275	24.50	338	19.5
C=CC(=O)Nc1cc(Nc2cc(C(=O)c3ccccc3OC)ccn2)c(OC)cc1N(C)CCN(C)C [EGFR_3365_88, N-(2-((2-(dimethylamino)ethyl)(methyl)amino)-4-methoxy-5-((4-(2-methoxybenzoyl)pyridin-2-yl)amino)phenyl)acrylamide]	0.0782	14.9	68.2	0.0626	0.0626	238	17	0.00509	15.37	429	26.9
C=CC(=O)Nc1cc(Nc2cc(C(=O)c3ccc(OCCOC)cc3)ccn2)c(OC)cc1N(C)CCN(C)C [EGFR_3365_93, N-(2-((2-(dimethylamino)ethyl)(methyl)amino)-4-methoxy-5-((4-(4-(2-methoxyethoxy)benzoyl)pyridin-2-yl)amino)phenyl) acrylamide]	0.0415	9.15	96.3	0.104	0.104	88	19.5	< 0.001	>41.48	227	23.6
C=CC(=O)Nc1cc(Nc2nccc(C(=O)c3ccc(OCCC)cc3OC)n2)c(OC)cc1N(C)CCN(C)C [EGFR_3365_101, N-(2-((2-(dimethylamino)ethyl)(methyl)amino)-4-methoxy-5-((4-(2-methoxy-4-propoxybenzoyl)pyrimidin-2-yl)amino)phenyl)acrylamide]	0.0293	8.32	99.2	0.0129	0.0129	645	21.3	0.00254	11.55	1238	16
C=CC(=O)Nc1cc(Nc2nccc(C(=O)c3ccc(OC(C)C)cc3OC)n2)c(OC)cc1N(C)CCN(C)C [EGFR_3365_103, N-(2-((2-(dimethylamino)ethyl)(methyl)amino)-5-((4-(4-isopropoxy-2-methoxybenzoyl)pyrimidin-2-yl)amino)-4-methoxyphenyl) acrylamide]	0.0226	12.6	96.2	0.0132	0.0132	954	20.4	0.00214	10.60	2232	29.4
C=CC(=O)Nc1cc(Nc2nccc(C(=O)c3ccc(N4CCCCC4)cc3OC)n2)c(OC)cc1N(C)CCN(C)C [EGFR_3365_122, N-(2-((2-(dimethylamino)ethyl)(methyl)amino)-4-methoxy-5-((4-(2-methoxy-4-(piperidin-1-yl)benzoyl)pyrimidin-2-yl)amino)phenyl)acrylamide]	0.0197	5.31	92.2	0.00221	0.00221	2398	–	0.00267	7.35	5710	12.6
